We go through four molecules from patent publication US7618957B2, “Perfluoroalkyl-containing complexes, process for their production as well as their use” (Bayer Schering Pharma Aktiengesellschaft, priority 2005, dated 2009).

A short description of series [1]: Excretion after intravenous administration in rats (ICP-AES). Conditions: 50 μmol of total gadolinium/kg i.v., 14 days after administration. Format: in vivo. Here is the method:
After intravenous administration of 50 μmol of total gadolinium/kg of body weight of the gadolinium complexes of the title substances of Examples 1d, 5c, 14c, 15c in rats (n=3), the metal content was determined in fractions up to 14 days after administration by means of atom emission spectrometry (ICP-AES) in the excretion media of urine and feces, as well as in the body (the rest of the body).

The test system of series [2] is arteriosclerotic plaque of WHHL rabbits. Kind of series: MRT visualization of arteriosclerotic plaque after intravenous administration. Format: in vivo, Watanabe rabbits. The conditions noted are these: 50 μmol of Gd/kg i.v., 6 or 24 hours after administration. The protocol: The pictures of FIG. 3 show MR images of the aorta 6 or 24 hours after intravenous administration of 50 μmol of Gd/kg of body weight of the title substances from Example 1d) and Example 14c in Watanabe rabbits (WHHL rabbits; genetically-induced arteriosclerosis) and in control animals without arteriosclerosis (white New Zealanders). […] The localization of the plaque, especially in the aortic arch as well as in the vascular passages, was confirmed by means of Sudan-3 staining. With this test, the suitability of the compounds according to the invention as markers for arteriosclerotic plaque could be shown.

A short description of series [3]: Relaxivity (T1 and T2 relaxation times) in water, NMR pulse spectrometer Minispec PC 20. The conditions noted are these: 40° C., 0.47 T. The series is classed as physicochemical. The protocol:
(§1) The T1 and T2 relaxation times of water and plasma (bovine) with increasing concentrations of the gadolinium complexes of the title substances of Examples 1d, 5c, 14c, 15c contained therein were determined at 40° C. with use of an NMR pulse spectrometer (Minispec PC 20) at 0.47 T. The results are set forth in Table 1.

A short description of series [4]: Plasma kinetics after intravenous administration in rats (ICP-AES). Format: in vivo. Conditions: 50 μmol of total gadolinium/kg i.v.; for Elimination Half-Life of Blood: calculated with WinNonlin from plasma concentrations. The protocol:
After intravenous administration of 50 μmol of total gadolinium/kg of body weight of the gadolinium complexes of the title substances of Examples 1d, 5c, 14c, 15c in rats (n=3), blood samples were taken via a catheter in the common carotid artery at different points in time ([…].), the metal content was determined by means of atom emission spectrometry (ICP-AES) and converted to plasma values via a conversion factor (0.625). The elimination half-life was calculated by means of special software (WinNonlin) from the plasma concentrations.

Series [5] concerns VX2-tumor-carrying rabbits. The series is described as follows: MRT visualization of lymph node metastases and primary tumors in VX2-tumor-carrying rabbits. Conditions: rabbits with i.m. implanted VX2 tumors, 50 μmol of Gd/kg i.v. Format: in vivo. Here is the method: The pictures of FIGS. 1 and 2 show MR images of iliac lymph nodes precontrast as well as up to 24 hours after intravenous administration of 50 μmol of Gd/kg of body weight of the title substance of Example 1d) in rabbits with i.m. implanted VX2 tumors. […] Zones where there was no signal rise within the lymph node were diagnosed as metastases and confirmed histologically (H/E staining of the lymph node sections) (FIG. 1).
At later times (24 hours p.i.), this enhancement also propagates toward the center of the tumor.

Another series deals with mice. The series is described as follows: Acute toxicity after one-time intravenous administration in mice (preliminary). The series is classed as in vivo. The conditions noted are these: one-time i.v., observation period of 7 days. Here is the method: After intravenous administration of the gadolinium complexes of the title substances of Examples 1d, 5c, 14c, 15c in mice (n=3; rate of injection: 2 ml/min), the acute systemic compatibility (LD50) was determined preliminarily. In each case, several dosages with an observation period of 7 days were examined. The acute toxicities that are to be expected can be seen in Table 1.

Series [6] can be described thus: Relaxivity (T1 and T2 relaxation times) in plasma (bovine), NMR pulse spectrometer Minispec PC 20. The series is classed as physicochemical. The conditions noted are these: 40° C., 0.47 T. Here is the method: as §1
The next series concerns popliteal lymph nodes. Kind of series: MRT visualization of lymph nodes after intravenous administration in rats. Format: in vivo. The conditions noted are these: 50 μmol of Gd/kg i.v., up to 60 minutes p.i. From the text: By way of example, the pictures show MR images of popliteal lymph nodes at different points in time after intravenous administration of 50 μmol of Gd/kg of body weight of the title substance from Example 5c), title substance from Example 14c) and title substance from Example 15c) in rats.

In series [7] the test system is inflammatory muscle lesions and necrotic areas. Kind of series: MRT visualization of inflammatory lesions and necrotic areas in rats. The conditions noted are these: Rose Bengal/xenon lamp induced lesion, 50 μmol of Gd/kg i.v. The series is classed as in vivo. The protocol:
By way of example, the pictures of FIG. 4 show MR images of inflammatory muscle lesions as well as necrotic areas at different points in time after intravenous administration of 50 μmol of Gd/kg of body weight of the title substance of Example 14c in rats. The inflammation/necrosis was induced by intravenous administration of Rose Bengal (20 mg/kg; 24 hours before the administration of contrast medium) and subsequent 20-minute irradiation with a xenon lamp.

Turning to `CC(C(=O)NCC(=O)NCCN(CCC(F)(F)C(F)(F)C(F)(F)C(F)(F)C(F)(F)C(F)(F)C(F)(F)C(F)(F)F)C(=O)CO[C@H]1O[C@H](CO)[C@@H](O)[C@H](O)[C@@H]1O)N1CCN(CC(=O)[O-])CCN(CC(=O)[O-])CCN(CC(=O)[O-])CC1.[Gd+3]` (stereo partly drawn) [Example 1, N-{[1,4,7-Tris-(carboxylatomethyl)-1,4,7,10-tetracyclododecane-10-N-(pentanoyl-3-aza-4-oxo-5-methyl-5-yl)]-2-aminoethyl}-N-(1H,1H,2H,2H-perfluorodecyl)-2-(1-O-α-d-mannopyranosyl)-acetamide, Gd Complex], in series [1], the “Body Retention 14 days” value was 0.0%. The “signal rise in the arteriosclerotic plaque, T1-weighted inversion-recovery MR images of the aorta” value in [2] is “strong signal rise”. For the same molecule, in series [3], the “Relaxivity R1(w) = R1-relaxivity in water” value was “R1(w): 22.7 1/(mmol * s)”. In series [4], the “Gd Content of Blood 24 Hours p.i.” value amounted to 0.7% and the “Elimination Half-Life of Blood” value was 4.8 h. Besides, the “signal rise in healthy lymph node tissue (iliac lymph nodes), T1-weighted turbo-spin-echo MR images” value in series [5] (15 to 60 minutes p.i.) is “strong signal rise”. Moreover, in series [5] (immediately after administration), the “enhancement in the primary tumor, MR images” value is “clear enhancement”. For the same molecule, the “LD50 Mouse” value in the series on mice is given as >10 mmol/kg. In addition, the “Relaxivity R1(p) = R1-relaxivity in plasma” value in series [6] is given as “R1(p): 25.8 1/(mmol * s)”.
Consider `COCCOCCOCC(=O)N(CCNC(=O)CNC(=O)C(C)N1CCN(CC(=O)[O-])CCN(CC(=O)[O-])CCN(CC(=O)[O-])CC1)CCC(F)(F)C(F)(F)C(F)(F)C(F)(F)C(F)(F)C(F)(F)C(F)(F)C(F)(F)F.[Gd+3]` (centres unmarked) [Example 5, N-{[1,4,7-Tris-(carboxylatomethyl)-1,4,7,10-tetraazacyclododecane-10-N-(pentanoyl-3-aza-4-oxo-5-methyl-5-yl)]-2-aminoethyl}-N-(1H,1H,2H,2H-perfluorodecyl)-2-[2-(2-methoxyethoxy)-ethoxy]-acetamide, Gd Complex], for which the “Body Retention 14 days” value in [1] was 0.0%. Moreover, in the series on popliteal lymph nodes, the “signal rise in the functional lymph node tissue (popliteal lymph nodes), T1-weighted turbo-spin-echo MR images” value is “strong signal rise”. Further, the “Relaxivity R1(w) = R1-relaxivity in water” value in series [3] is given as “R1(w): 18.9 1/(mmol * s)”. In series [4], the “Gd Content of Blood 24 Hours p.i.” value was found to be 0.0% and the “Elimination Half-Life of Blood” value is 0.8 hour hours. Also, the “Relaxivity R1(p) = R1-relaxivity in plasma” value in series [6] was “R1(p): 24.8 1/(mmol * s)”.
With `COCCOCCOCCOCC(=O)N(CCNC(=O)CNC(=O)C(C)N1CCN(CC(=O)[O-])CCN(CC(=O)[O-])CCN(CC(=O)[O-])CC1)CCC(F)(F)C(F)(F)C(F)(F)C(F)(F)C(F)(F)C(F)(F)C(F)(F)C(F)(F)F.[Gd+3]` (centres unmarked) [Example 14, N-{[1,4,7-Tris-(carboxylatomethyl)-1,4,7,10-tetraazacyclododecane-10-N-(pentanoyl-3-aza-4-oxo-5-methyl-5-yl)]-2-aminoethyl}-N-(1H,1H,2H,2H-perfluorodecyl)-2-{-2-[2-(2-methoxyethoxy)-ethoxy]-ethoxy}-acetamide, Gd Complex], in series [1], the “Body Retention 14 days” value is listed as 0.0%. In addition, the “signal rise in the central necrosis, T1-weighted turbo-spin-echo MR images” value in series [7] (24 hours p.i.) was “delayed signal rise”. In addition, in series [7] (up to 60 minutes p.i.), the “signal rise in the inflammatorily altered tissue, T1-weighted turbo-spin-echo MR images” value is reported as “strong signal rise”. Also, the “signal rise in the functional lymph node tissue (popliteal lymph nodes), T1-weighted turbo-spin-echo MR images” value in the series with popliteal lymph nodes is recorded as “strong signal rise”. Further, the “signal rise in the arteriosclerotic plaque, T1-weighted inversion-recovery MR images of the aorta” value in [2] is recorded as “strong signal rise”. In series [3], the “Relaxivity R1(w) = R1-relaxivity in water” value is recorded as “R1(w): 18.6 1/(mmol * s)”. For the same molecule, in series [4], the “Gd Content of Blood 24 Hours p.i.” value turned out to be 0.0% and the “Elimination Half-Life of Blood” value was 1.1 h. In addition, the “LD50 Mouse” value in the series on mice was 7.5 mmol/kg. Further, in series [6], the “Relaxivity R1(p) = R1-relaxivity in plasma” value was “R1(p): 25.5 1/(mmol * s)”.
For the molecule `COCCOCC(=O)N(CCNC(=O)CNC(=O)C(C)N1CCN(CC(=O)[O-])CCN(CC(=O)[O-])CCN(CC(=O)[O-])CC1)CCC(F)(F)C(F)(F)C(F)(F)C(F)(F)C(F)(F)C(F)(F)C(F)(F)C(F)(F)F.[Gd+3]` (centres unmarked) [Example 15, N-{[1,4,7-Tris-(carboxylatomethyl)-1,4,7,10-tetraazacyclododecane-10-N-(pentanoyl-3-aza-4-oxo-5-methyl-5-yl)]-2-aminoethyl}-N-(1H,1H,2H,2H-perfluorodecyl)-2-(2-methoxyethoxy)-acetamide, Gd Complex], the “Body Retention 14 days” value in [1] came out at 0.0%. For the same molecule, in the series with popliteal lymph nodes, the “signal rise in the functional lymph node tissue (popliteal lymph nodes), T1-weighted turbo-spin-echo MR images” value is “strong signal rise”. Also, in [3], the “Relaxivity R1(w) = R1-relaxivity in water” value is on record as “R1(w): 17.2 1/(mmol * s)”. Also, in series [4], the “Gd Content of Blood 24 Hours p.i.” value worked out at 0.2% and the “Elimination Half-Life of Blood” value is 4.8 h. In addition, the “LD50 Mouse” value in the series on mice was >10 mmol/kg. Also, in series [6], the “Relaxivity R1(p) = R1-relaxivity in plasma” value is recorded as “R1(p): 24.6 1/(mmol * s)”.
